molecular target: T1, MAGL (recombinant wild-type) (Homo sapiens, UniProt Q99685); assay: MAGL inhibition, 4-NPA assay (hydrolysis of 4-nitrophenylacetate, absorbance at 405 nm); type: biochemical; details: 4-NPA assay (footnote [a]: values not marked [b])
T1 sequence (Q99685 1-303): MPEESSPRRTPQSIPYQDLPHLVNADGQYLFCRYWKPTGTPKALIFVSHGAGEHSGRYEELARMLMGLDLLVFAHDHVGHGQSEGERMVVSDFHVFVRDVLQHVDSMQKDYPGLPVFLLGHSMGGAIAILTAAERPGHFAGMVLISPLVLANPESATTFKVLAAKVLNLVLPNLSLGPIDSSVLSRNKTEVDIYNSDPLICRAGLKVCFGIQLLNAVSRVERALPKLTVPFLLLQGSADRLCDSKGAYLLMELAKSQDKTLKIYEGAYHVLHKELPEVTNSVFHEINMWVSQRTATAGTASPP
Experimental: Compounds were profiled for MAGL inhibitory activity by measuring the enzymatic activity of MAGL by following the hydrolysis of 4-nitrophenylacetate resulting in 4-nitrophenol, which absorbs at 405-412 nm (G. G. Muccioli, G. Labar, D. M. Lambert, Chem. Bio. Chem. 2008, 9, 2704-2710). This assay is hereinafter abbreviated “4-NPA assay”.
The assay was carried out in 384 well assay plates (black with clear bottom, non-binding surface treated, Corning Ref. 3655) in a total volume of 40 μL. Compound dilutions were made in 100% DMSO (VWR Chemicals 23500.297) in a polypropylene plate in 3-fold dilution steps to give a final concentration range in the assay from 25 μM to 1.7 nM. 1 μL compound dilutions (100% DMSO) were added to 19 μL MAGL (recombinant wild-type) in assay buffer (50 mM TRIS (GIBCO, 15567-027), 1 mM EDTA (Fluka, 03690-100 mL)). The plate was shaked for 1 min at 2000 rpm (Variomag Teleshake) and then incubated for 15 min at RT. To start the reaction, 20 μL 4-Nitrophenlyacetate (Sigma N-8130) in assay buffer with 6% EtOH was added. The final concentrations in the assay were 1 nM MAGL and 300 μM 4-Nitrophenylacetate. After shaking (1 min, 2000 rpm) and 5 min incubation at RT, the absorbance at 405 nm was measured for a first time (Molecular Devices, SpectraMax Paradigm). A second measurement was then done after incubation for 80 min at RT. From the two measurements, the slope was calculated by subtracting the first from the second measurement.

| SMILES | IC50 [nM] |
| --- | --- |
| O=C1CO[C@H]2CCN(C(=O)N3CCC(c4cn(C5COC5)c5ccc(Cl)cc45)CC3)C[C@H]2N1 (relative stereo) [Example 22, (+)- or (−)-cis-6-(4-(5-Chloro-1-(oxetan-3-yl)-1H-indol-3-yl)piperidine-1-carbonyl)hexahydro-2H-pyrido[4,3-b][1,4]oxazin-3(4H)-one] | 2 |
| O=C1CO[C@H]2CCN(C(=O)N3CCC(c4cn(C5CC5)c5ccc(Cl)cc45)CC3)C[C@H]2N1 (single isomer, unassigned) [Example 19, (+)-or (−)-cis-6-(4-(5-Chloro-1-cyclopropyl-1H-indol-3-yl)piperidine-1-carbonyl)hexahydro-2H-pyrido[4,3-b][1,4]oxazin-3(4H)-one] | 1 |
| O=C1CO[C@H]2CCN(C(=O)N3CCC(C(c4ccc(F)cc4)c4ccc(F)cc4)CC3)C[C@H]2N1 (single isomer, unassigned) [Example 21, (+)-or (−)-cis-6-(4-(bis(4-Fluorophenyl)methyl)piperidine-1-carbonyl)hexahydro-2H-pyrido[4,3-b][1,4]oxazin-3(4H)-one] | 1 |
| O=C1CO[C@H]2CCN(C(=O)N3CCC(c4cn(CC5COC5)c5ccc(Cl)cc45)CC3)C[C@H]2N1 (single isomer, unassigned) [Example 23, (+)-or (−)-cis-6-(4-(5-Chloro-1-(oxetan-3-ylmethyl)-1H-indol-3-yl)piperidine-1-carbonyl)hexahydro-2H-pyrido[4,3-b][1,4]oxazin-3(4H)-one] | 3 |
| CC(C)(C)[Si](C)(C)OCCn1cc(C2CCN(C(=O)N3CC[C@@H]4OCC(=O)N[C@@H]4C3)CC2)c2cc(Cl)ccc21 (single isomer, unassigned) [Example 24, (+)-or (−)-cis-6-(4-(1-(2-((tert-Butyldimethylsilyl)oxy)ethyl)-5-chloro-1H-indol-3-yl)piperidine-1-carbonyl)hexahydro-2H-pyrido[4,3-b][1,4]oxazin-3(4H)-one] | 0.7 |
| O=C1CO[C@H]2CCN(C(=O)N3CCC(c4cn(CCO)c5ccc(Cl)cc45)CC3)C[C@H]2N1 (single isomer, unassigned) [Example 25, (+)- or (−)-cis-6-(4-(5-Chloro-1-(2-hydroxyethyl)-1H-indol-3-yl)piperidine-1-carbonyl)hexahydro-2H-pyrido[4,3-b][1,4]oxazin-3(4H)-one] | 2 |
| O=C1CO[C@H]2CCN(C(=O)N3CCC([C@H](CCO)c4ccc(F)cc4)CC3)C[C@H]2N1 (single isomer, unassigned) [Example 32, (−)-(4aR,8aS)--6-(4-((S or R)-1-(4-Fluorophenyl)-3-hydroxypropyl)piperidine-1-carbonyl)hexahydro-2H-pyrido[4,3-b][1,4]oxazin-3(4H)-one] | 203 |
| C[C@H](Oc1ccc(F)cc1Cl)C1CCN(C(=O)N2CC[C@@H]3OCC(=O)N[C@@H]3C2)CC1 (single isomer, unassigned) [Example 33, (+) or (−)-cis-6-(4-((S or R)-1-(2-Chloro-4-fluorophenoxy)ethyl)piperidine-1-carbonyl)hexahydro-2H-pyrido[4,3-b][1,4]oxazin-3(4H)-one] | 51 |
| C[C@@H](Oc1ccc(F)cc1Cl)C1CCN(C(=O)N2CC[C@@H]3OCC(=O)N[C@@H]3C2)CC1 (single isomer, unassigned) [Example 34, (+) or (−)-cis-6-(4-((R or S)-1-(2-Chloro-4-fluorophenoxy)ethyl)piperidine-1-carbonyl)hexahydro-2H-pyrido[4,3-b][1,4]oxazin-3(4H)-one] | 1 |
| COc1cncc(C2CCN(C(=O)N3CC[C@@H]4OCC(=O)N[C@@H]4C3)CC2)c1 (single isomer, unassigned) [Example 35, (+) or (−)-cis-6-(4-(5-Methoxypyridin-3-yl)piperidine-1-carbonyl)hexahydro-2H-pyrido[4,3-b][1,4]oxazin-3(4H)-one] | 2400 |
| O=C1CO[C@@H]2CCN(C(=O)N3CCC(C(c4ccc(F)cc4)c4ccc(F)cc4)CC3)C[C@@H]2N1 (single isomer, unassigned) [Example 36, (+) or (−)-cis-6-(4-(Bis(4-fluorophenyl)methyl)piperidine-1-carbonyl)hexahydro-2H-pyrido[4,3-b][1,4]oxazin-3(4H)-one] | 85 |
| O=C1CO[C@H]2CCN(C(=O)N3CCC(C(F)(F)c4ccc(Cl)cc4)CC3)C[C@H]2N1 (single isomer, unassigned) [Example 37, (+) or (−)-cis-6-(4-((4-Chlorophenyl)difluoromethyl)piperidine-1-carbonyl)hexahydro-2H-pyrido[4,3-b][1,4]oxazin-3(4H)-one] | 34 |
| O=C1CO[C@H]2CCN(C(=O)N3CCC(c4ccc(OC(F)(F)F)cn4)CC3)C[C@H]2N1 (single isomer, unassigned) [Example 38, (+) or (−)-cis-6-(4-(5-(Trifluoromethoxy)pyridin-2-yl)piperidine-1-carbonyl)hexahydro-2H-pyrido[4,3-b][1,4]oxazin-3(4H)-one] | 644 |
| O=C1CO[C@H]2CCN(C(=O)N3CCC(C(F)(F)c4ccc(F)cc4Cl)CC3)C[C@H]2N1 (single isomer, unassigned) [Example 39, (+) or (−)-cis-6-(4-((2-Chloro-4-fluorophenyl)difluoromethyl)piperidine-1-carbonyl)hexahydro-2H-pyrido[4,3-b][1,4]oxazin-3(4H)-one] | 21 |
| CCc1cncc(C2CCN(C(=O)N3CC[C@@H]4OCC(=O)N[C@@H]4C3)CC2)c1 (single isomer, unassigned) [Example 40, (+) or (−)-cis-6-(4-(5-Ethylpyridin-3-yl)piperidine-1-carbonyl)hexahydro-2H-pyrido[4,3-b][1,4]oxazin-3(4H)-one] | 683 |
| CC(F)(F)c1ccc(C2CCN(C(=O)N3CC[C@@H]4OCC(=O)N[C@@H]4C3)CC2)nc1 (single isomer, unassigned) [Example 41, (+) or (−)-cis-6-(4-(5-(1,1-Difluoroethyl)pyridin-2-yl)piperidine-1-carbonyl)hexahydro-2H-pyrido[4,3-b][1,4]oxazin-3(4H)-one] | 485 |
| Cn1nc(C2CCN(C(=O)N3CC[C@@H]4OCC(=O)N[C@@H]4C3)CC2)c2ccc(Cl)cc21 (single isomer, unassigned) [Example 42, (+) or (−)-cis-6-(4-(6-Chloro-1-methyl-1H-indazol-3-yl)piperidine-1-carbonyl)hexahydro-2H-pyrido[4,3-b][1,4]oxazin-3(4H)-one] | 103 |
| Cc1cccc(C(c2ccccc2)C2CCN(C(=O)N3CC[C@@H]4OCC(=O)N[C@@H]4C3)CC2)c1 (single isomer, unassigned) [Example 80, (4aR,8aS)-6-[4-[(S or R)-m-Tolyl(phenyl)methyl]piperidine-1-carbonyl]-4,4a,5,7,8,8a-hexahydropyrido[4,3-b][1,4]oxazin-3-one] | 0.4 |
| O=C1CO[C@H]2CCN(C(=O)N3CCC(C(CCO)c4ccc(F)cc4)CC3)C[C@H]2N1 (single isomer, unassigned; (+)) [Example 31, (+)-(4aR,8aS)-6-(4-((R or S)-1-(4-Fluorophenyl)-3-hydroxypropyl)piperidine-1-carbonyl)hexahydro-2H-pyrido[4,3-b][1,4]oxazin-3(4H)-one] | 17 |
| O=C1CO[C@@H]2CCN(C(=O)N3CCN(C(c4ccc(F)cc4)c4ccc(F)cc4)CC3)C[C@@H]2N1 (stereo in doubt) [Example 13, (−)-(cis)-6-(4-(bis(4-Fluorophenyl)methyl)piperazine-1-carbonyl)hexahydro-2H-pyrido[4,3-b][1,4]oxazin-3(4H)-one] | 88 |
| O=C1CO[C@H]2CCN(C(=O)N3CCC(c4cncc(C(F)(F)F)c4)CC3)C[C@H]2N1 [Example 29, (4aR,8aS)-6-(4-(5-(Trifluoromethyl)pyridin-3-yl)piperidine-1-carbonyl)hexahydro-2H-pyrido[4,3-b][1,4]oxazin-3(4H)-one] | 703 |
| O=C1CO[C@H]2CCN(C(=O)N3CCC(C(F)(F)c4ccc(C(F)(F)F)cc4)CC3)C[C@H]2N1 [Example 30, (4aR,8aS)-6-(4-(Difluoro(4-(trifluoromethyl)phenyl)methyl)piperidine-1-carbonyl)hexahydro-2H-pyrido[4,3-b][1,4]oxazin-3(4H)-one] | 25 |
| O=C1CO[C@H]2CCN(C(=O)N3CC(C(c4ccc(F)cc4)c4ccc(F)cc4)C3)C[C@H]2N1 [Example 82, (4aR,8aS)-6-(3-(bis(4-Fluorophenyl)methyl)azetidine-1-carbonyl)hexahydro-2H-pyrido[4,3-b][1,4]oxazin-3(4H)-one] | 1200 |
